Assay results taken from ChEMBL document CHEMBL1932926, “New substituted C-19-andrographolide analogues with potent cytotoxic activities” (2012).

System: MCF7
Experiment: Cytotoxicity against human MCF7 cells by SRB assay
Type: functional
Settings: read-out: ED50 (the source's name)

| Structure (SMILES) | EC50 [µM] |
| --- | --- |
| C=C1CC[C@@H]2[C@](C)(CO)[C@H](OC(C)=O)CC[C@@]2(C)[C@@H]1C/C=C1/C(=O)OC[C@H]1O | 26.4 |
| C=C1CC[C@@H]2[C@](C)(COC(C)=O)[C@H](O)CC[C@@]2(C)[C@@H]1C/C=C1/C(=O)OC[C@H]1O | 18.2 |
| C=C1CC[C@@H]2[C@](C)(COC(C)=O)[C@H](OC(C)=O)CC[C@@]2(C)[C@@H]1C/C=C1/C(=O)OC[C@H]1O | 19.7 |
| C=C1CC[C@@H]2[C@](C)(COC(C)=O)[C@H](O)CC[C@@]2(C)[C@@H]1C/C=C1/C(=O)OC[C@H]1OC(C)=O | 18.5 |
| C=C1CC[C@@H]2[C@](C)(COC(C)=O)[C@H](OC(C)=O)CC[C@@]2(C)[C@@H]1C/C=C1/C(=O)OC[C@H]1OC(C)=O | 10 |
| C=C1CC[C@@H]2[C@](C)(CO)[C@H](OC(C)=O)CC[C@@]2(C)[C@@H]1C/C=C1/C(=O)OC[C@H]1OC(C)=O | 11 |
| C=C1CC[C@@H]2[C@](C)(COC(c3ccccc3)(c3ccccc3)c3ccccc3)[C@H](O)CC[C@@]2(C)[C@@H]1C/C=C1/C(=O)OC[C@H]1O | 2.72 |
| C=C1CC[C@@H]2[C@](C)(COC(c3ccccc3)(c3ccccc3)c3ccccc3)[C@H](OC(C)=O)CC[C@@]2(C)[C@@H]1C/C=C1/C(=O)OC[C@H]1OC(C)=O | 22.7 |
| C=C1CC[C@@H]2[C@]3(C)COC(C)(C)O[C@@H]3CC[C@@]2(C)[C@@H]1C/C=C1/C(=O)OC[C@H]1O | 42.8 |
| C=C1CC[C@@H]2[C@](C)(CO)[C@H](O)CC[C@@]2(C)[C@@H]1C/C=C1/C(=O)OC[C@H]1O [ANDROGRAPHOLIDE] | 15.4 |
| Cc1c2ccncc2c(C)c2c1[nH]c1ccccc12 [ELLIPTECINE] | 2.71 |

System: Lu1
Experiment: Cytotoxicity against human Lu1 cells by SRB assay
Type: functional
Settings: read-out: ED50 (the source's name)

| Structure (SMILES) | EC50 [µM] |
| --- | --- |
| C=C1CC[C@@H]2[C@](C)(CO)[C@H](OC(C)=O)CC[C@@]2(C)[C@@H]1C/C=C1/C(=O)OC[C@H]1O | 30.6 |
| C=C1CC[C@@H]2[C@](C)(COC(C)=O)[C@H](O)CC[C@@]2(C)[C@@H]1C/C=C1/C(=O)OC[C@H]1O | 14 |
| C=C1CC[C@@H]2[C@](C)(COC(C)=O)[C@H](OC(C)=O)CC[C@@]2(C)[C@@H]1C/C=C1/C(=O)OC[C@H]1O | 34.7 |
| C=C1CC[C@@H]2[C@](C)(COC(C)=O)[C@H](O)CC[C@@]2(C)[C@@H]1C/C=C1/C(=O)OC[C@H]1OC(C)=O | 19.8 |
| C=C1CC[C@@H]2[C@](C)(COC(C)=O)[C@H](OC(C)=O)CC[C@@]2(C)[C@@H]1C/C=C1/C(=O)OC[C@H]1OC(C)=O | 12.4 |
| C=C1CC[C@@H]2[C@](C)(CO)[C@H](OC(C)=O)CC[C@@]2(C)[C@@H]1C/C=C1/C(=O)OC[C@H]1OC(C)=O | 8.75 |
| C=C1CC[C@@H]2[C@](C)(COC(c3ccccc3)(c3ccccc3)c3ccccc3)[C@H](O)CC[C@@]2(C)[C@@H]1C/C=C1/C(=O)OC[C@H]1O | 0.88 |
| C=C1CC[C@@H]2[C@](C)(COC(c3ccccc3)(c3ccccc3)c3ccccc3)[C@H](OC(C)=O)CC[C@@]2(C)[C@@H]1C/C=C1/C(=O)OC[C@H]1OC(C)=O | 8.37 |
| C=C1CC[C@@H]2[C@]3(C)COC(C)(C)O[C@@H]3CC[C@@]2(C)[C@@H]1C/C=C1/C(=O)OC[C@H]1O | 53 |
| C=C1CC[C@@H]2[C@](C)(CO)[C@H](O)CC[C@@]2(C)[C@@H]1C/C=C1/C(=O)OC[C@H]1O [ANDROGRAPHOLIDE] | 13 |
| Cc1c2ccncc2c(C)c2c1[nH]c1ccccc12 [ELLIPTECINE] | 1.62 |

System: P388
Experiment: Cytotoxicity against mouse P388 cells by SRB assay
Type: functional
Settings: read-out: ED50 (the source's name)

| Structure (SMILES) | EC50 [µM] |
| --- | --- |
| C=C1CC[C@@H]2[C@](C)(CO)[C@H](OC(C)=O)CC[C@@]2(C)[C@@H]1C/C=C1/C(=O)OC[C@H]1O | 4.78 |
| C=C1CC[C@@H]2[C@](C)(COC(C)=O)[C@H](O)CC[C@@]2(C)[C@@H]1C/C=C1/C(=O)OC[C@H]1O | 2.04 |
| C=C1CC[C@@H]2[C@](C)(COC(C)=O)[C@H](OC(C)=O)CC[C@@]2(C)[C@@H]1C/C=C1/C(=O)OC[C@H]1O | 2.65 |
| C=C1CC[C@@H]2[C@](C)(COC(C)=O)[C@H](O)CC[C@@]2(C)[C@@H]1C/C=C1/C(=O)OC[C@H]1OC(C)=O | 1.62 |
| C=C1CC[C@@H]2[C@](C)(COC(C)=O)[C@H](OC(C)=O)CC[C@@]2(C)[C@@H]1C/C=C1/C(=O)OC[C@H]1OC(C)=O | 1.4 |
| C=C1CC[C@@H]2[C@](C)(CO)[C@H](OC(C)=O)CC[C@@]2(C)[C@@H]1C/C=C1/C(=O)OC[C@H]1OC(C)=O | 0.69 |
| C=C1CC[C@@H]2[C@](C)(COC(c3ccccc3)(c3ccccc3)c3ccccc3)[C@H](O)CC[C@@]2(C)[C@@H]1C/C=C1/C(=O)OC[C@H]1O | 0.45 |
| C=C1CC[C@@H]2[C@](C)(COC(c3ccccc3)(c3ccccc3)c3ccccc3)[C@H](OC(C)=O)CC[C@@]2(C)[C@@H]1C/C=C1/C(=O)OC[C@H]1OC(C)=O | 1.92 |
| C=C1CC[C@@H]2[C@]3(C)COC(C)(C)O[C@@H]3CC[C@@]2(C)[C@@H]1C/C=C1/C(=O)OC[C@H]1O | 3.78 |
| C=C1CC[C@@H]2[C@](C)(CO)[C@H](O)CC[C@@]2(C)[C@@H]1C/C=C1/C(=O)OC[C@H]1O [ANDROGRAPHOLIDE] | 2.25 |
| Cc1c2ccncc2c(C)c2c1[nH]c1ccccc12 [ELLIPTECINE] | 2.44 |

System: KB
Experiment: Cytotoxicity against human KB cells by SRB assay
Type: functional
Settings: read-out: ED50 (the source's name)

| Structure (SMILES) | EC50 [µM] |
| --- | --- |
| C=C1CC[C@@H]2[C@](C)(CO)[C@H](OC(C)=O)CC[C@@]2(C)[C@@H]1C/C=C1/C(=O)OC[C@H]1O | 35.6 |
| C=C1CC[C@@H]2[C@](C)(COC(C)=O)[C@H](O)CC[C@@]2(C)[C@@H]1C/C=C1/C(=O)OC[C@H]1O | 15.3 |
| C=C1CC[C@@H]2[C@](C)(COC(C)=O)[C@H](OC(C)=O)CC[C@@]2(C)[C@@H]1C/C=C1/C(=O)OC[C@H]1O | 35.2 |
| C=C1CC[C@@H]2[C@](C)(COC(C)=O)[C@H](O)CC[C@@]2(C)[C@@H]1C/C=C1/C(=O)OC[C@H]1OC(C)=O | 26.4 |
| C=C1CC[C@@H]2[C@](C)(COC(C)=O)[C@H](OC(C)=O)CC[C@@]2(C)[C@@H]1C/C=C1/C(=O)OC[C@H]1OC(C)=O | 11.6 |
| C=C1CC[C@@H]2[C@](C)(CO)[C@H](OC(C)=O)CC[C@@]2(C)[C@@H]1C/C=C1/C(=O)OC[C@H]1OC(C)=O | 11.7 |
| C=C1CC[C@@H]2[C@](C)(COC(c3ccccc3)(c3ccccc3)c3ccccc3)[C@H](O)CC[C@@]2(C)[C@@H]1C/C=C1/C(=O)OC[C@H]1O | 2.42 |
| C=C1CC[C@@H]2[C@](C)(COC(c3ccccc3)(c3ccccc3)c3ccccc3)[C@H](OC(C)=O)CC[C@@]2(C)[C@@H]1C/C=C1/C(=O)OC[C@H]1OC(C)=O | 9.77 |
| C=C1CC[C@@H]2[C@]3(C)COC(C)(C)O[C@@H]3CC[C@@]2(C)[C@@H]1C/C=C1/C(=O)OC[C@H]1O | 66.5 |
| C=C1CC[C@@H]2[C@](C)(CO)[C@H](O)CC[C@@]2(C)[C@@H]1C/C=C1/C(=O)OC[C@H]1O [ANDROGRAPHOLIDE] | 27.4 |
| Cc1c2ccncc2c(C)c2c1[nH]c1ccccc12 [ELLIPTECINE] | 2.46 |

System: Col2
Experiment: Cytotoxicity against human Col2 cells by SRB assay
Type: functional
Settings: read-out: ED50 (the source's name)

| Structure (SMILES) | EC50 [µM] |
| --- | --- |
| C=C1CC[C@@H]2[C@](C)(CO)[C@H](OC(C)=O)CC[C@@]2(C)[C@@H]1C/C=C1/C(=O)OC[C@H]1O | 27.2 |
| C=C1CC[C@@H]2[C@](C)(COC(C)=O)[C@H](O)CC[C@@]2(C)[C@@H]1C/C=C1/C(=O)OC[C@H]1O | 12.9 |
| C=C1CC[C@@H]2[C@](C)(COC(C)=O)[C@H](OC(C)=O)CC[C@@]2(C)[C@@H]1C/C=C1/C(=O)OC[C@H]1O | 15.3 |
| C=C1CC[C@@H]2[C@](C)(COC(C)=O)[C@H](O)CC[C@@]2(C)[C@@H]1C/C=C1/C(=O)OC[C@H]1OC(C)=O | 15.2 |
| C=C1CC[C@@H]2[C@](C)(COC(C)=O)[C@H](OC(C)=O)CC[C@@]2(C)[C@@H]1C/C=C1/C(=O)OC[C@H]1OC(C)=O | 10.8 |
| C=C1CC[C@@H]2[C@](C)(CO)[C@H](OC(C)=O)CC[C@@]2(C)[C@@H]1C/C=C1/C(=O)OC[C@H]1OC(C)=O | 10.2 |
| C=C1CC[C@@H]2[C@](C)(COC(c3ccccc3)(c3ccccc3)c3ccccc3)[C@H](O)CC[C@@]2(C)[C@@H]1C/C=C1/C(=O)OC[C@H]1O | 2.73 |
| C=C1CC[C@@H]2[C@](C)(COC(c3ccccc3)(c3ccccc3)c3ccccc3)[C@H](OC(C)=O)CC[C@@]2(C)[C@@H]1C/C=C1/C(=O)OC[C@H]1OC(C)=O | 22.8 |
| C=C1CC[C@@H]2[C@]3(C)COC(C)(C)O[C@@H]3CC[C@@]2(C)[C@@H]1C/C=C1/C(=O)OC[C@H]1O | 39.8 |
| C=C1CC[C@@H]2[C@](C)(CO)[C@H](O)CC[C@@]2(C)[C@@H]1C/C=C1/C(=O)OC[C@H]1O [ANDROGRAPHOLIDE] | 13.6 |
| Cc1c2ccncc2c(C)c2c1[nH]c1ccccc12 [ELLIPTECINE] | 2.72 |

System: not listed separately
Experiment: Cytotoxicity against rat ASK cells by SRB assay
Type: functional
Settings: read-out: ED50 (the source's name)

| Structure (SMILES) | EC50 [µM] |
| --- | --- |
| C=C1CC[C@@H]2[C@](C)(CO)[C@H](OC(C)=O)CC[C@@]2(C)[C@@H]1C/C=C1/C(=O)OC[C@H]1O | 58.1 |
| C=C1CC[C@@H]2[C@](C)(COC(C)=O)[C@H](O)CC[C@@]2(C)[C@@H]1C/C=C1/C(=O)OC[C@H]1O | 16.7 |
| C=C1CC[C@@H]2[C@](C)(COC(C)=O)[C@H](OC(C)=O)CC[C@@]2(C)[C@@H]1C/C=C1/C(=O)OC[C@H]1O | 22.4 |
| C=C1CC[C@@H]2[C@](C)(COC(C)=O)[C@H](O)CC[C@@]2(C)[C@@H]1C/C=C1/C(=O)OC[C@H]1OC(C)=O | 16.3 |
| C=C1CC[C@@H]2[C@](C)(COC(C)=O)[C@H](OC(C)=O)CC[C@@]2(C)[C@@H]1C/C=C1/C(=O)OC[C@H]1OC(C)=O | 11.4 |
| C=C1CC[C@@H]2[C@](C)(CO)[C@H](OC(C)=O)CC[C@@]2(C)[C@@H]1C/C=C1/C(=O)OC[C@H]1OC(C)=O | 11.5 |
| C=C1CC[C@@H]2[C@](C)(COC(c3ccccc3)(c3ccccc3)c3ccccc3)[C@H](O)CC[C@@]2(C)[C@@H]1C/C=C1/C(=O)OC[C@H]1O | 2.86 |
| C=C1CC[C@@H]2[C@](C)(COC(c3ccccc3)(c3ccccc3)c3ccccc3)[C@H](OC(C)=O)CC[C@@]2(C)[C@@H]1C/C=C1/C(=O)OC[C@H]1OC(C)=O | 15.3 |
| C=C1CC[C@@H]2[C@]3(C)COC(C)(C)O[C@@H]3CC[C@@]2(C)[C@@H]1C/C=C1/C(=O)OC[C@H]1O | 52.2 |
| C=C1CC[C@@H]2[C@](C)(CO)[C@H](O)CC[C@@]2(C)[C@@H]1C/C=C1/C(=O)OC[C@H]1O [ANDROGRAPHOLIDE] | 16.2 |
| Cc1c2ccncc2c(C)c2c1[nH]c1ccccc12 [ELLIPTECINE] | 3.56 |
